Test results: patent publication US8962671B2, “Amino-substituted 3-heteroaroylamino-propionic acid derivatives and their use as pharmaceuticals” (Sanofi, priority 2011, dated 2015)

The molecules below were run against T1, Recombinant human cathepsin A (Homo sapiens, UniProt P10619) (assay: Cathepsin A inhibitory activity). Conditions: activated recombinant human cathepsin A 833 ng/ml, Bodipy FL-labeled bradykinin 2 μM, pH 5.5, 15 min room temperature.
T1 construct: Recombinant human cathepsin A (residues 29-480, with a C-terminal 10-His tag); 10-His (C); purchased R&D Systems 1049-SE
T1 sequence (P10619 29-326 limits assumed): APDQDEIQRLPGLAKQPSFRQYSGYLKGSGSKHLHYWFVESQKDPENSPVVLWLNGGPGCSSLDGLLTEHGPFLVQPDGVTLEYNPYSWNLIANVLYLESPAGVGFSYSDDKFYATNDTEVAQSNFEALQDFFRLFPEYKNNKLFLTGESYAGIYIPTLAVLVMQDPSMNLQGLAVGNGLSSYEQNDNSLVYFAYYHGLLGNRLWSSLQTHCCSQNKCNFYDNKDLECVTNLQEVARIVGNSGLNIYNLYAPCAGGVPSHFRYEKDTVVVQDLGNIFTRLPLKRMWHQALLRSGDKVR
T1 sequence (P10619 327-480 limits assumed): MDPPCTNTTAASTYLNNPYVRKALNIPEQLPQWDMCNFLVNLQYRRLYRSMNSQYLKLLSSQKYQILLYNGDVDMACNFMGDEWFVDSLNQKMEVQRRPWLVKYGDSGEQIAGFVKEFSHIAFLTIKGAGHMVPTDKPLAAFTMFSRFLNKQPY
Type: biochemical
Protocol: a) Cathepsin a Inhibitory Activity
Recombinant human cathepsin A (residues 29-480, with a C-terminal 10-His tag; R&D Systems, #1049-SE) was proteolytically activated with recombinant human cathepsin L (R&D Systems, #952-CY). Briefly, cathepsin A was incubated at 10 μg/ml with cathepsin L at 1 μg/ml in activation buffer (25 mM 2-(morpholin-4-yl)-ethanesulfonic acid (MES), pH 6.0, containing 5 mM dithiothreitol (DTT)) for 15 min at 37° C. Cathepsin L activity was then stopped by the addition of the cysteine protease inhibitor E-64 (N-(trans-epoxysuccinyl)-L-leucine-4-guanidinobutylamide; Sigma-Aldrich, #E3132; dissolved in activation buffer/DMSO) to a final concentration of 10 μM.
The activated cathepsin A was diluted in assay buffer (25 mM MES, pH 5.5, containing 5 mM DTT) and mixed with the test compound (dissolved in assay buffer containing (v/v) 3% DMSO) or, in the control experiments, with the vehicle in a multiple assay plate. After incubation for 15 min at room temperature, as substrate then bradykinin carrying an N-Terminal®Bodipy FL (4,4-difluoro-5,7-dimethyl-4-bora-3a,4a-diaza-s-indacene-3-propionyl) label (JPT Peptide Technologies GmbH; dissolved in assay buffer) was added to the mixture. The final concentration of cathepsin A was 833 ng/ml and the final concentration of labeled bradykinin 2 μM. After incubation for 15 min at room temperature the reaction was stopped by the addition of stop buffer (130 mM 2-(4-(2-hydroxy-ethyl)-piperazin-1-yl)-ethanesulfonic acid, pH 7.4, containing (v/v) 0.013%®Triton X-100, 0.13% Coating Reagent 3 (Caliper Life Sciences), 6.5% DMSO and 20 μM ebelactone B (Sigma, #E0886)).
Uncleaved substrate and product were then separated by a microfluidic capillary electrophoresis on a LabChip® 3000 Drug Discovery System (12-Sipper-Chip; Caliper Life Sciences) and quantified by determination of the respective peak areas. Substrate turnover was calculated by dividing product peak area by the sum of substrate and product peak areas, and the enzyme activity and the inhibitory effect of the test compound thus quantified. From the percentage of inhibition of cathepsin A activity observed with the test compound at several concentrations, the inhibitory concentration IC50, i.e. the concentration which effects 50% inhibition of enzyme activity was, calculated.
`O=C(O)CC(NC(=O)c1cc2[nH]c3ccccc3n2n1)c1cc(F)ccc1Cl` (stereo not drawn) [Example 32, 3-[(4H-Benzo[4,5]imidazo[1,2-b]pyrazole-2-carbonyl)-amino]-3-(2-chloro-5-fluoro-phenyl)-propionic acid] showed an IC50 of 664 nM. Molecule `O=C(O)CC(NC(=O)c1cc2[nH]c3ccccc3n2n1)c1cc(F)ccc1F` (stereo not drawn) [Example 33, 3-[(4H-Benzo[4,5]imidazo[1,2-b]pyrazole-2-carbonyl)-amino]-3-(2,5-difluoro-phenyl)-propionic acid] has an IC50 of 2670 nM. `O=C(O)CC(NC(=O)c1cc2[nH]c3ccccc3n2n1)c1ccc(F)cc1` (stereo not drawn) [Example 34, 3-[(4H-Benzo[4,5]imidazo[1,2-b]pyrazole-2-carbonyl)-amino]-3-(4-fluoro-phenyl)-propionic acid] was tested, and the IC50 was 2520 nM. `Cc1ccccc1C(CC(=O)O)NC(=O)c1cc2[nH]c3ccccc3n2n1` (stereo not drawn) [Example 35, 3-[(4H-Benzo[4,5]imidazo[1,2-b]pyrazole-2-carbonyl)-amino]-3-o-tolyl-propionic acid] was tested, and the IC50 was 900 nM. `N#Cc1cccc([C@H](CC(=O)O)NC(=O)c2cc3[nH]c4ccccc4n3n2)c1` [Example 37, (S)-3-[(4H-Benzo[4,5]imidazo[1,2-b]pyrazole-2-carbonyl)-amino]-3-(3-cyano-phenyl)-propionic acid] gave an IC50 of 3570 nM. Molecule `Cc1ccccc1[C@H](CC(=O)O)NC(=O)c1cc2[nH]c3ccccc3n2n1` [Example 38, (S)-3-[(4H-Benzo[4,5]imidazo[1,2-b]pyrazole-2-carbonyl)-amino]-3-o-tolyl-propionic acid] has an IC50 of 219 nM. In the case of `Cc1cccc([C@H](CC(=O)O)NC(=O)c2cc3[nH]c4ccccc4n3n2)c1` [Example 39, (S)-3-[(4H-Benzo[4,5]imidazo[1,2-b]pyrazole-2-carbonyl)-amino]-3-m-tolyl-propionic acid], the IC50 is reported as 940 nM. Work on `O=C(O)C[C@H](NC(=O)c1cc2[nH]c3ccccc3n2n1)c1ccccc1F` [Example 40, (S)-3-[(4H-Benzo[4,5]imidazo[1,2-b]pyrazole-2-carbonyl)-amino]-3-(2-fluoro-phenyl)-propionic acid] yielded an IC50 of 1170 nM. Work on `O=C(O)C[C@H](NC(=O)c1cc2[nH]c3ccccc3n2n1)c1ccccc1` [Example 41, (S)-3-[(4H-Benzo[4,5]imidazo[1,2-b]pyrazole-2-carbonyl)-amino]-3-phenyl-propionic acid] yielded an IC50 of 1230 nM. With `CC(C)(CC(=O)O)NC(=O)c1cc2[nH]c3ccccc3n2n1` [Example 43, 3-[(4H-Benzo[4,5]imidazo[1,2-b]pyrazole-2-carbonyl)-amino]-3-methyl-butyric acid] the IC50 was 5180 nM. With `O=C(O)C[C@H](NC(=O)c1cc2[nH]c3ccccc3n2n1)c1ccccc1Cl` [Example 49, (S)-3-[(4H-Benzo[4,5]imidazo[1,2-b]pyrazole-2-carbonyl)-amino]-3-(2-chloro-phenyl)-propionic acid] the IC50 was 392 nM. `Cc1ccccc1[C@H](CC(=O)O)NC(=O)c1cc(NCC2CC2)n(-c2ccccc2)n1` [Example 50, (S)-3-{[5-(Cyclopropylmethyl-amino)-1-phenyl-1H-pyrazole-3-carbonyl]-amino}-3-o-tolyl-propionic acid] was tested, and the IC50 was 49 nM. `Cc1ccccc1[C@H](CC(=O)O)NC(=O)c1cc(N(CC2CC2)CC2CC2)n(-c2ccccc2)n1` [Example 51, (S)-3-{[5-(Bis-cyclopropylmethyl-amino)-1-phenyl-1H-pyrazole-3-carbonyl]-amino}-3-o-tolyl-propionic acid] showed an IC50 of 524 nM. `Cc1ccccc1[C@H](CC(=O)O)NC(=O)c1cc(NC(=O)C(C)(C)C)n(-c2ccccc2)n1` [Example 52, (S)-3-{[5-(2,2-Dimethyl-propionylamino)-1-phenyl-1H-pyrazole-3-carbonyl]-amino}-3-o-tolyl-propionic acid] showed an IC50 of 28.6 nM. `CC(C)(C)C(=O)Nc1cc(C(=O)N[C@@H](CC(=O)O)c2ccc(Cl)cc2Cl)nn1-c1ccccc1` [Example 53, (S)-3-(2,4-Dichloro-phenyl)-3-{[5-(2,2-dimethyl-propionylamino)-1-phenyl-1H-pyrazole-3-carbonyl]-amino}-propionic acid] showed an IC50 of 27.1 nM. With `CC(C)(C)C(=O)Nc1cc(C(=O)N[C@@H](CC(=O)O)c2ccccc2Cl)nn1-c1ccccc1` [Example 54, (S)-3-(2-Chloro-phenyl)-3-{[5-(2,2-dimethyl-propionylamino)-1-phenyl-1H-pyrazole-3-carbonyl]-amino}-propionic acid] the IC50 was 31.3 nM. In the case of `Cc1ccccc1[C@H](CC(=O)O)NC(=O)c1cc(N(C)C(=O)C(C)(C)C)n(-c2ccccc2)n1` [Example 55, (S)-3-({5-[(2,2-Dimethyl-propionyl)-methyl-amino]-1-phenyl-1H-pyrazole-3-carbonyl}-amino)-3-o-tolyl-propionic acid], the IC50 is reported as 17.5 nM. Work on `Cc1ccccc1[C@H](CC(=O)O)NC(=O)c1cc(NCC(=O)C(C)(C)C)n(-c2ccccc2)n1` [Example 56, (S)-3-{[5-(3,3-Dimethyl-2-oxo-butylamino)-1-phenyl-1H-pyrazole-3-carbonyl]-amino}-3-o-tolyl-propionic acid] yielded an IC50 of 16.1 nM. In the case of `Cc1ccccc1[C@H](CC(=O)O)NC(=O)c1cc(NCC(O)C(C)(C)C)n(-c2ccccc2)n1` (stereo partly drawn) [Example 57, (S)-3-{[5-(2-Hydroxy-3,3-dimethyl-butylamino)-1-phenyl-1H-pyrazole-3-carbonyl]-amino}-3-o-tolyl-propionic acid], the IC50 is reported as 12.1 nM. `Cc1ccccc1[C@H](CC(=O)O)NC(=O)c1cc(NCC(C)(O)C(C)(C)C)n(-c2ccccc2)n1` (stereo partly drawn) [Example 58, (S)-3-{[5-(2-Hydroxy-2.3,3-trimethyl-butylamino)-1-phenyl-1H-pyrazole-3-carbonyl]-amino}-3-o-tolyl-propionic acid] showed an IC50 of 38.5 nM. With `Cc1ccc(C(=O)Nc2cc(C(=O)N[C@@H](CC(=O)O)c3ccccc3C)nn2-c2ccccc2)o1` [Example 61, (S)-3-({5-[(5-Methyl-furan-2-carbonyl)-amino]-1-phenyl-1H-pyrazole-3-carbonyl}-amino)-3-o-tolyl-propionic acid] the IC50 was 62.6 nM. For `Cc1ccc(C(=O)Nc2cc(C(=O)N[C@@H](CC(=O)O)c3ccc(Cl)cc3Cl)nn2-c2ccccc2)o1` [Example 62, (S)-3-(2,4-Dichloro-phenyl)-3-({5-[(5-methyl-furan-2-carbonyl)-amino]-1-phenyl-1H-pyrazole-3-carbonyl}-amino)-propionic acid], the IC50 was 175 nM. Work on `Cc1ccccc1[C@H](CC(=O)O)NC(=O)c1cc(N(C)C(=O)c2ccccc2)n(-c2ccccc2)n1` [Example 63, (S)-3-{[5-(Benzoyl-methyl-amino)-1-phenyl-1H-pyrazole-3-carbonyl]-amino}-3-o-tolyl-propionic acid] yielded an IC50 of 57.2 nM. `CN(C(=O)c1ccccc1)c1cc(C(=O)N[C@@H](CC(=O)O)c2ccc(Cl)cc2Cl)nn1-c1ccccc1` [Example 64, (S)-3-{[5-(Benzoyl-methyl-amino)-1-phenyl-1H-pyrazole-3-carbonyl]-amino}-3-(2,4-dichloro-phenyl)-propionic acid] showed an IC50 of 64.7 nM. `Cc1ccccc1[C@H](CC(=O)O)NC(=O)c1cc(N(C)CC(O)C(C)(C)C)n(-c2ccccc2)n1` (stereo partly drawn) [Example 65, (S)-3-({5-[(2-Hydroxy-3,3-dimethyl-butyl)-methyl-amino]-1-phenyl-1H-pyrazole-3-carbonyl}-amino)-3-o-tolyl-propionic acid] gave an IC50 of 78.3 nM. `Cc1ccccc1[C@H](CC(=O)O)NC(=O)c1cc(NC(=O)c2ccccc2)n(-c2ccccc2)n1` [Example 66, (S)-3-[(5-Benzoylamino-1-phenyl-1H-pyrazole-3-carbonyl)-amino]-3-o-tolyl-propionic acid] showed an IC50 of 30.1 nM. Work on `O=C(O)C[C@H](NC(=O)c1cc(NC(=O)c2ccccc2)n(-c2ccccc2)n1)c1ccc(Cl)cc1Cl` [Example 67, (S)-3-[(5-Benzoylamino-1-phenyl-1H-pyrazole-3-carbonyl)-amino]-3-(2,4-dichloro-phenyl)-propionic acid] yielded an IC50 of 106 nM.
